From patent US8946441B2, “Polymorphs of an active pharmaceutical ingredient” (Sandoz AG, priority 2010, dated 2015)
Converted amounts (≈) assume the structure as drawn.

Legend:
[1] = form A, prior art references (EP1020454, US 7,361,676); cited from earlier work
[2] = Moisture sorption/desorption isotherm (SPS-11 moisture sorption analyzer); assay type: physicochemical; settings: for hygroscopicity: 0% to 90% RH, 25°C
Description: The moisture sorption/desorption isotherms were recorded with a SPS-11 moisture sorption analyzer (MD Messtechnik, Ulm, D). […] The equilibrium condition for each step was set to a mass constancy of ±0.01% over 30 min. The temperature was 25±0.1° C.

[3] = Polymorphic stability on storage; assay type: physicochemical
[4] = Solubility determination of form I and form A in methanol/water (1:1 v/v), UV-spectrophotometry at 314 nm; assay type: physicochemical; settings: MeOH/H2O 50%:50% v/v, 5 to 180 min, FIG. 8
Description: 25 mg of Febuxostat form I or form A, obtained according to the procedure described in EP1020454 were stirred in a mixture of 20 ml of methanol and water (1:1 v/v). 1 ml of the suspension was withdrawn from each suspension within a time range of 5 to 180 min with the aid of a volumetric pipette and filtered. The filtrate was diluted to 25 ml with a 50% (v/v) methanol/water mixture and the concentration was determined by UV-spectrophotometry at 314 nm (apparatus: Shimadzu UV 1800).
A calibration curve was determined based on a series of known concentrations in the same solvent system.

[5] = Water content according to Karl Fischer; assay type: physicochemical; settings: stored at 20° C., ambient pressure, 0% up to 90% relative humidity
[6] = Kinetics of conversion to hemihydrate G in a mix of methanol and water; assay type: physicochemical
From the text: The solvent system methanol/water represents a model for the dissolution of solid states of Febuxostat, with the hemihydrate G representing a thermodynamic very stable form with low solubility in aqueous systems.

For `Cc1nc(-c2ccc(OCC(C)C)c(C#N)c2)sc1C(=O)O` [form A, 2-(3-cyano-4-isobutyloxy-phenyl)-4-methyl-5-thiazolecarboxylic acid], the solubility [1] is given as 220 µg/mL (≈ 695 µM).

With `Cc1nc(-c2ccc(OCC(C)C)c(C#N)c2)sc1C(=O)O` [Form II, 2-(3-cyano-4-isobutyloxy-phenyl)-4-methyl-5-thiazolecarboxylic acid] the hygroscopicity [2] was “non hygroscopic”, the water uptake ([2]; up to a relative humidity of 90%) was “no significant water uptake” and the “polymorphic stability on storage” value ([3]; ambient temperature for 6 weeks) was “does not convert to another polymorphic form”.

For `Cc1nc(-c2ccc(OCC(C)C)c(C#N)c2)sc1C(=O)O` [form I, 2-(3-cyano-4-isobutyloxy-phenyl)-4-methyl-5-thiazolecarboxylic acid], the “increase in solubility compared to form A” value [4] was “approximately 20%”, the hygroscopicity ([2]; listed as polymorph I) was “nonhygroscopic” and the “water content (KF)” value [5] was “below 0.1%”. The “kinetics of conversion to hemihydrate G compared to anhydrate A” value [6] was “slower” and the “polymorphic stability on storage” value ([3]; stress conditions, 40° C. for 3 months) was “does not change its polymorphic state properties”.

With `Cc1nc(-c2ccc(OCC(C)C)c(C#N)c2)sc1C(=O)O` [tert.-amylalcohol solvate, 2-(3-cyano-4-isobutyloxy-phenyl)-4-methyl-5-thiazolecarboxylic acid] the stability on storage ([3]; ambient conditions in open atmosphere for 5 weeks) was “stable”.
